Assay results from patent US20150368242A1, “NOVEL TETRAHYDROPYRIDOPYRIMIDINONE DERIVATIVE” (Ajinomoto Co., Inc., priority 2013, published 2015).
pIC50: −log10 of the molar value. Structures can show the parent of a compound that is named as a salt.

Target: T1, recombinant human MGAT2 enzyme (Homo sapiens, UniProt Q3SYC2)
T1 construct: made in house; host or cells: CHO-K1 (Jump-In CHO-K1 Kit, Life Technologies); microsomal fraction used as the enzyme solution
Test: Test for human MGAT2 activity inhibitory action (14C-oleoyl CoA, recombinant enzyme microsomes)
Format: biochemical
Set-up: key to Potency relative to Comparative Example 1 (higher = more potent): % inhibition = {1−(C−B)/(A−B)}×100, B = 10 μM Comparative Example 1
Settings: for pIC50: Table 5, Examples 25 to 60, same method, read-out: IC50; for Potency relative to Comparative Example 1 (higher = more potent): Table 5, relative to Comparative Example 1 measured in the same run
Experimental: The human MGAT2 gene described in Am. J. Physiol. Endocrinol. Metab. 285: E927-E937, 2003 was expressed using Jump-In™ CHO-K1 Kit (Life technologies) as described in the attached manual. The cells were suspended in a buffer containing Tris-hydrochloric acid (pH 7.4) at a final concentration of 1 mM, 1 mM ethylenediaminetetraacetic acid, 1 mM dithiothreitol, 250 mM sucrose, and complete protease inhibitor cocktail (Roche applied Science), and then disrupted using a Teflon homogenizer (AS ONE Corporation), followed by centrifugation at 130 g for 10 minutes. The supernatant was further centrifuged at 100,000 g for 1 hour to obtain a pellet as microsomes containing the recombinant enzyme, and a solution obtained by suspending this pellet at a protein concentration of about 800 to 1900 μg/ml was used as an MGAT recombinant enzyme solution.
To a buffer containing 50 mM Tris-hydrochloric acid (pH 7.4), 6 mM magnesium chloride, and 2 mg/mL bovine serum albumin, a test compound was added, and the final concentration of dimethyl sulfoxide was adjusted to 0.3%. Moreover, 2-monooleoyl glycerol, oleoyl CoA, 1-^14C-oleoyl CoA (Perkin Elmer), and orlistat (SIGMA) were added at final concentrations of 50 μM, 50 μM, 2.2 μM, and 8.3 μM, respectively, followed by incubation at 37° C. for 10 minutes. After 10 minutes, the recombinant human MGAT2 enzyme solution was added at a final concentration of 0.67 μg/mL, and the reaction was started, with the amount of the reaction solution being 150 μl. The reaction was carried out at 37° C. for 30 minutes.
After 30 minutes, the reaction was stopped by adding 300 μl of isopropanol:heptane:water=(80:20:2) to the reaction liquid. Further, 200 μl of heptane and 100 μl of water were added, followed by stirring. Then, 100 μl of the upper layer was transferred to a 96-well plate (Corning), and mixed with 100 μl of liquid scintillator (LumaSafe Plus, Lumac). Then, the ^14C count was quantitatively determined using TopCount NXT™ microplate scintillation luminescence counter (Perkin Elmer).
The ^14C count in a case where no test compound was added was defined as A, the ^14C count in a case where 10 μM of the compound (Comparative Example 1) of Example No. 8 of WO2008/038768 was added was defined as B, and the ^14C count in the case where the test compound was added was taken as C. For this case, {1−(C−B)/(A−B)}×100(%) was calculated as the human MGAT2 activity inhibition ratio of the test compound (shown in the column named vs Comp. Ex. 1 in the following Table). A greater value of the “vs Comparative Example 1” means that the MGAT2 activity inhibitory action of the compound of Example was higher as compared to the MGAT2 activity inhibitory action of the compound of Comparative Example 1 (i.e., the human MGAT2 activity inhibition ratio was higher). […] Since this evaluation test was conducted for two separate groups, the test results of the two groups are shown separately in Table (First Test) and Table 4 (Second Test).
Next, the compounds of Examples 25 to 60 of the present invention were also investigated for their pharmacological action by using the same method as in Examples 1 to 24. […] Note that, a comparative evaluation test against the compound of Comparative Example 1 was conducted for each of the compounds of Examples (in every measurement of the inhibitory activity of the compounds of Examples 25 to 60, the inhibitory activity of the compound of Comparative Example 1 was measured). The 50% inhibition concentrations of Comparative Example 1 in the measurement of the inhibitory activities of the compounds of Examples 25 to 60 were shown in Table 5 as “IC50 (nM) of Comparative Example 1.”

T1 sequence (Q3SYC2 whole entry): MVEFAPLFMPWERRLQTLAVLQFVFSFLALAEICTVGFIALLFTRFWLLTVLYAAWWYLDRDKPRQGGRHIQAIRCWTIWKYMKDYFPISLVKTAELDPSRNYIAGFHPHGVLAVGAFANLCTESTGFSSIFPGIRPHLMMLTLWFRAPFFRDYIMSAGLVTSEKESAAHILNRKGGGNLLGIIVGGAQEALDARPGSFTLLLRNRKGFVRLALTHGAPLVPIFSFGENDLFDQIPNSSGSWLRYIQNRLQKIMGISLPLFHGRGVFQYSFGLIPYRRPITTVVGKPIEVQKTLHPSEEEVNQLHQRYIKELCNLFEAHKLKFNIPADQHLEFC

Row | pIC50 | Potency relative to Comparative Example 1 (higher = more potent) | SMILES
1 | 9.15 | – | CC(C)[C@H](CNCCC(=O)N1CCc2nc(SC3CCC3)n(-c3ccccc3)c(=O)c2C1)Nc1ccc(Cl)cc1 [Example 40, 6-[3-[[(2R)-2-(4-chloroanilino)-3-methyl-butyl]amino]propanoyl]-2-cyclobutylsulfanyl-3-phenyl-7,8-dihydro-5H-pyrido[4,3-d]pyrimidin-4-one trifluoroacetate]
2 | 8.96 | – | C[C@@H](NCCC(=O)N1CCc2nc(SC3CCC3)n(-c3ccccc3)c(=O)c2C1)c1ccccc1 [Example 41, 2-cyclobutylsulfanyl-3-phenyl-6-[3-[[(1R)-1-phenylethyl]amino]propanoyl]-7,8-dihydro-5H-pyrido[4,3-d]pyrimidin-4-one trifluoroacetate]
3 | 8.92 | – | C[C@H](NCCC(=O)N1CCc2nc(SC3CCC3)n(-c3ccccc3)c(=O)c2C1)c1ccccc1 [Example 42, 2-cyclobutylsulfanyl-3-phenyl-6-[3-[[(1S)-1-phenylethyl]amino]propanoyl]-7,8-dihydro-5H-pyrido[4,3-d]pyrimidin-4-one trifluoroacetate]
4 | 8.60 | – | O=C(CCNC[C@H](O)c1ccc(F)cc1)N1CCc2nc(SC3CCC3)n(-c3ccccc3)c(=O)c2C1 [Example 43, 2-cyclobutylsulfanyl-6-[3-[[(2R)-2-(4-fluorophenyl)-2-hydroxy-ethyl]amino]propanoyl]-3-phenyl-7,8-dihydro-5H-pyrido[4,3-d]pyrimidin-4-one trifluoroacetate]
5 | 8.74 | 135 | O=C(CCNCC(O)COc1ccc(F)cc1)N1CCc2nc(SC3CCC3)n(-c3ccccc3)c(=O)c2C1 (stereo not shown) [Example 44, trifluoroacetate]
6 | 8.89 | – | O=C(CCNCC(O)COc1ccc(Cl)cc1)N1CCc2nc(SC3CCC3)n(-c3ccccc3)c(=O)c2C1 (stereo not shown) [Example 45, 6-[3-[[3-(4-chlorophenoxy)-2-hydroxy-propyl]amino]propanoyl]-2-cyclobutylsulfanyl-3-phenyl-7,8-dihydro-5H-pyrido[4,3-d]pyrimidin-4-one trifluoroacetate]
7 | > 9.00 | – | O=C(CCNCCOc1ccc(F)cc1)N1CCc2nc(SC3CCC3)n(-c3ccccc3)c(=O)c2C1 [Example 46, 2-cyclobutylsulfanyl-6-[3-[2-(4-fluorophenoxy)ethylamino]propanoyl]-3-phenyl-7,8-dihydro-5H-pyrido[4,3-d]pyrimidin-4-one trifluoroacetate]
8 | 8.96 | – | O=C(CCNCCCOc1ccc(F)cc1)N1CCc2nc(SC3CCC3)n(-c3ccccc3)c(=O)c2C1 [Example 47, 2-cyclobutylsulfanyl-6-[3-[3-(4-fluorophenoxy)propylamino]propanoyl]-3-phenyl-7,8-dihydro-5H-pyrido[4,3-d]pyrimidin-4-one trifluoroacetate]
9 | > 9.00 | >184 | O=C(CCNCCCCOc1ccc(F)cc1)N1CCc2nc(SC3CCC3)n(-c3ccccc3)c(=O)c2C1 [Example 48, 2-cyclobutylsulfanyl-6-[3-[4-(4-fluorophenoxy)butylamino]propanoyl]-3-phenyl-7,8-dihydro-5H-pyrido[4,3-d]pyrimidin-4-one trifluoroacetate]
10 | > 9.00 | >184 | O=C(CCNCCCCCOc1ccc(F)cc1)N1CCc2nc(SC3CCC3)n(-c3ccccc3)c(=O)c2C1 [Example 49, 2-cyclobutylsulfanyl-6-[3-[5-(4-fluorophenoxy)pentylamino]propanoyl]-3-phenyl-7,8-dihydro-5H-pyrido[4,3-d]pyrimidin-4-one trifluoroacetate]
11 | 8.43 | 73 | O=C(CNCCCOc1ccc(F)cc1)N1CCc2nc(SC3CCC3)n(-c3ccccc3)c(=O)c2C1 [Example 50, 2-cyclobutylsulfanyl-6-[2-[3-(4-fluorophenoxy)propylamino]acetyl]-3-phenyl-7,8-dihydro-5H-pyrido[4,3-d]pyrimidin-4-one trifluoroacetate]
12 | 8.38 | 64 | O=C(CNCCOc1ccc(F)cc1)N1CCc2nc(SC3CCC3)n(-c3ccccc3)c(=O)c2C1 [Example 51, 2-cyclobutylsulfanyl-6-[2-[2-(4-fluorophenoxy)ethylamino]acetyl]-3-phenyl-7,8-dihydro-5H-pyrido[4,3-d]pyrimidin-4-one trifluoroacetate]
13 | 8.77 | 158 | O=C(CNCCCCOc1ccc(F)cc1)N1CCc2nc(SC3CCC3)n(-c3ccccc3)c(=O)c2C1 [Example 52, 2-cyclobutylsulfanyl-6-[2-[4-(4-fluorophenoxy)butylamino]acetyl]-3-phenyl-7,8-dihydro-5H-pyrido[4,3-d]pyrimidin-4-one trifluoroacetate]
14 | 8.70 | 133 | O=C(CNCCCCCOc1ccc(F)cc1)N1CCc2nc(SC3CCC3)n(-c3ccccc3)c(=O)c2C1 [Example 53, 2-cyclobutylsulfanyl-6-[2-[5-(4-fluorophenoxy)pentylamino]acetyl]-3-phenyl-7,8-dihydro-5H-pyrido[4,3-d]pyrimidin-4-one trifluoroacetate]
15 | 8.59 | 91 | O=C(CNCc1ccc(Oc2cccc(C(F)(F)F)c2)cc1)N1CCc2nc(SC3CCC3)n(-c3ccccc3)c(=O)c2C1 [Example 54, 2-cyclobutylsulfanyl-3-phenyl-6-[2-[[4-[3-(trifluoromethyl)phenoxy]phenyl]methylamino]acetyl]-7,8-dihydero-5H-pyrido[4,3-d]pyrimidin-4-one trifluoroacetate]
16 | > 9.00 | >207 | O=C(CNCCCCCNc1ccc(C(F)(F)F)cc1)N1CCc2nc(SC3CCC3)n(-c3ccccc3)c(=O)c2C1 [Example 55, 2-cyclobutylsulfanyl-3-phenyl-6-[2-[5-[4-(trifluoromethyl)anilino]pentylamino]acetyl]-7,8-dihydro-5H-pyrido[4,3-d]pyrimidin-4-one trifluoroacetate]
17 | 8.24 | 35 | O=C(CCNCc1nnc(Cc2ccc(C(F)(F)F)cc2)o1)N1CCc2nc(SC3CCC3)n(-c3ccccc3)c(=O)c2C1 [Example 56, 2-cyclobutylsulfanyl[-3-phenyl-6-[3-[5-[[4-(trifluoromethyl)phenyl]methyl]-1,3,4-oxadiazol-2-yl]methylamino]propanoyl]-7,8-dihydro-5H-pyrido[4,3-d]pyrimidin-4-one trifluoroacetate]
18 | 8.59 | 81 | O=C(CNCCCCCOC1CCCCC1)N1CCc2nc(SC3CCC3)n(-c3ccccc3)c(=O)c2C1 [Example 57, 2-cyclobutylsulfanyl-6-[2-[5-(cyclohexoxy)pentylamino]acetyl]-3-phenyl-7,8-dihydro-5H-pyrido[4,3-d]pyrimidin-4-one trifluoroacetate]
19 | 8.48 | 63 | O=C(CNCCCCCOC1CCC(F)(F)CC1)N1CCc2nc(SC3CCC3)n(-c3ccccc3)c(=O)c2C1 [Example 58, 2-cyclobutylsulfanyl-6-[2-[5-(4,4-difluorocyclohexoxy)pentylamino]acetyl]-3-phenyl-7,8-dihydro-5H-pyrido[4,3-d]pyrimidin-4-one trifluoroacetate]
